Measured values reported in PubChem BioAssay (NCI).
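In this assay, cells in 96-well plates receive the compound at five concentrations for 48 hours. Endpoints are linearly interpolated between the surrounding concentrations. GI50 is the concentration that inhibits growth by half. TGI: concentration producing complete growth inhibition.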

Legend:
Assay in all cases: DTP human tumour cell line panel, 48 h
U251 CNS = test system: U251 CNS
MCF7 breast = test system: MCF7 breast
CAKI-1 renal = test system: CAKI-1 renal
SK-MEL-28 melanoma = test system: SK-MEL-28 melanoma
NCI-H23 lung = test system: NCI-H23 lung
NCI-H460 lung = test system: NCI-H460 lung
OVCAR-3 ovarian = test system: OVCAR-3 ovarian
SF-295 CNS = test system: SF-295 CNS
OVCAR-8 ovarian = test system: OVCAR-8 ovarian
BT-549 breast = test system: BT-549 breast
SF-539 CNS = test system: SF-539 CNS
HT29 colon = test system: HT29 colon
EKVX NSCLC = test system: EKVX NSCLC
HCT-15 colon = test system: HCT-15 colon
SK-MEL-5 melanoma = test system: SK-MEL-5 melanoma
TK-10 renal = test system: TK-10 renal
RXF 393 renal = test system: RXF 393 renal
T-47D breast = test system: T-47D breast
SK-MEL-2 melanoma = test system: SK-MEL-2 melanoma
HOP-92 NSCLC = test system: HOP-92 NSCLC
SNB-19 CNS = test system: SNB-19 CNS
OVCAR-5 ovarian = test system: OVCAR-5 ovarian
COLO 205 colon = test system: COLO 205 colon
MDA-MB-231 breast = test system: MDA-MB-231 breast
NCI-H226 lung = test system: NCI-H226 lung
786-0 renal = test system: 786-0 renal
SR leukemia = test system: SR leukemia
MALME-3M melanoma = test system: MALME-3M melanoma
IGROV1 ovarian = test system: IGROV1 ovarian
RPMI-8226 leukemia = test system: RPMI-8226 leukemia
UACC-257 melanoma = test system: UACC-257 melanoma
HCC-2998 colon = test system: HCC-2998 colon
SF-268 CNS = test system: SF-268 CNS
DU-145 prostate = test system: DU-145 prostate
CCRF-CEM leukemia = test system: CCRF-CEM leukemia
A549 NSCLC = test system: A549 NSCLC
LOX IMVI melanoma = test system: LOX IMVI melanoma
NCI/ADR-RES ovarian = test system: NCI/ADR-RES ovarian
MOLT-4 leukemia = test system: MOLT-4 leukemia
SK-OV-3 ovarian = test system: SK-OV-3 ovarian
PC-3 prostate = test system: PC-3 prostate
HL-60(TB) leukemia = test system: HL-60(TB) leukemia
SNB-75 CNS = test system: SNB-75 CNS
NCI-H522 lung = test system: NCI-H522 lung
ACHN renal = test system: ACHN renal
UACC-62 melanoma = test system: UACC-62 melanoma
HS 578T breast = test system: HS 578T breast
SW-620 colon = test system: SW-620 colon
HOP-62 NSCLC = test system: HOP-62 NSCLC
A498 renal = test system: A498 renal
HCT-116 colon = test system: HCT-116 colon
SN12C renal = test system: SN12C renal
UO-31 renal = test system: UO-31 renal
OVCAR-4 ovarian = test system: OVCAR-4 ovarian
KM12 colon = test system: KM12 colon
MDA-MB-435 = test system: MDA-MB-435

With `Cc1ccc(NC(=O)Cc2ccc(/C=C/C(=O)c3ncc[nH]3)cc2)cc1` the GI50 (U251 CNS) was 1.59 µM, the TGI (U251 CNS) was > 25 µM and the GI50 (MCF7 breast) was 1.15 µM. The TGI (MCF7 breast) was > 25 µM, the GI50 (CAKI-1 renal) was 9.62 µM and the TGI (CAKI-1 renal) was > 25 µM. For the same compound, the GI50 (SK-MEL-28 melanoma) was 11.5 µM, the TGI (SK-MEL-28 melanoma) was > 25 µM and the GI50 (NCI-H23 lung) was 5.85 µM. The TGI (NCI-H23 lung) was > 25 µM, the GI50 (NCI-H460 lung) was 6.32 µM and the TGI (NCI-H460 lung) was > 25 µM. For the same compound, the GI50 (OVCAR-3 ovarian) was 1.67 µM, the TGI (OVCAR-3 ovarian) was > 25 µM and the GI50 (SF-295 CNS) was 7.9 µM. The TGI (SF-295 CNS) was > 25 µM, the GI50 (OVCAR-8 ovarian) was 7.24 µM and the TGI (OVCAR-8 ovarian) was > 25 µM. For the same compound, the GI50 (BT-549 breast) was 6.42 µM, the TGI (BT-549 breast) was > 25 µM and the GI50 (SF-539 CNS) was 4.77 µM. The TGI (SF-539 CNS) was 14 µM, the GI50 (HT29 colon) was 0.955 µM and the TGI (HT29 colon) was 5.09 µM. The GI50 (EKVX NSCLC) was 13.5 µM, the TGI (EKVX NSCLC) was > 25 µM and the GI50 (HCT-15 colon) was 2.01 µM. The TGI (HCT-15 colon) was 15.6 µM, the GI50 (SK-MEL-5 melanoma) was 18.3 µM and the TGI (SK-MEL-5 melanoma) was > 25 µM. For the same compound, the GI50 (TK-10 renal) was 7.93 µM, the TGI (TK-10 renal) was > 25 µM and the GI50 (RXF 393 renal) was 7.68 µM. For the same compound, the TGI (RXF 393 renal) was > 25 µM, the GI50 (T-47D breast) was 6.47 µM and the TGI (T-47D breast) was > 25 µM. For the same compound, the GI50 (SK-MEL-2 melanoma) was 18.1 µM, the TGI (SK-MEL-2 melanoma) was > 25 µM and the GI50 (HOP-92 NSCLC) was 18.5 µM. For the same compound, the TGI (HOP-92 NSCLC) was > 25 µM, the GI50 (SNB-19 CNS) was 6.65 µM and the TGI (SNB-19 CNS) was > 25 µM. The GI50 (OVCAR-5 ovarian) was 6.84 µM, the TGI (OVCAR-5 ovarian) was > 25 µM and the GI50 (COLO 205 colon) was 7.27 µM. The TGI (COLO 205 colon) was > 25 µM, the GI50 (MDA-MB-231 breast) was 9.46 µM and the TGI (MDA-MB-231 breast) was > 25 µM. The GI50 (NCI-H226 lung) was 9.59 µM, the TGI (NCI-H226 lung) was > 25 µM and the GI50 (786-0 renal) was 4.28 µM. For the same compound, the TGI (786-0 renal) was > 25 µM, the GI50 (SR leukemia) was 0.992 µM and the TGI (SR leukemia) was > 25 µM. The GI50 (MALME-3M melanoma) was > 25 µM, the TGI (MALME-3M melanoma) was > 25 µM and the GI50 (IGROV1 ovarian) was 6.47 µM. For the same compound, the TGI (IGROV1 ovarian) was > 25 µM, the GI50 (RPMI-8226 leukemia) was 1.79 µM and the TGI (RPMI-8226 leukemia) was 11.8 µM. The GI50 (UACC-257 melanoma) was > 25 µM, the TGI (UACC-257 melanoma) was > 25 µM and the GI50 (HCC-2998 colon) was 6.73 µM. The TGI (HCC-2998 colon) was > 25 µM, the GI50 (SF-268 CNS) was 5.32 µM and the TGI (SF-268 CNS) was > 25 µM. For the same compound, the GI50 (DU-145 prostate) was 4.56 µM, the TGI (DU-145 prostate) was > 25 µM and the GI50 (CCRF-CEM leukemia) was 4.67 µM. For the same compound, the TGI (CCRF-CEM leukemia) was > 25 µM, the GI50 (A549 NSCLC) was 9.14 µM and the TGI (A549 NSCLC) was > 25 µM. The GI50 (LOX IMVI melanoma) was 1.29 µM, the TGI (LOX IMVI melanoma) was 6.76 µM and the GI50 (NCI/ADR-RES ovarian) was 6.73 µM. The TGI (NCI/ADR-RES ovarian) was > 25 µM, the GI50 (MOLT-4 leukemia) was 5.33 µM and the TGI (MOLT-4 leukemia) was > 25 µM. For the same compound, the GI50 (SK-OV-3 ovarian) was 12.8 µM, the TGI (SK-OV-3 ovarian) was > 25 µM and the GI50 (PC-3 prostate) was 7.1 µM. The TGI (PC-3 prostate) was > 25 µM, the GI50 (HL-60(TB) leukemia) was 5.88 µM and the TGI (HL-60(TB) leukemia) was > 25 µM. The GI50 (SNB-75 CNS) was 7 µM, the TGI (SNB-75 CNS) was > 25 µM and the GI50 (NCI-H522 lung) was 4.54 µM. For the same compound, the TGI (NCI-H522 lung) was 20.5 µM, the GI50 (ACHN renal) was 6.51 µM and the TGI (ACHN renal) was 21.4 µM. The GI50 (UACC-62 melanoma) was 8.29 µM, the TGI (UACC-62 melanoma) was > 25 µM and the GI50 (HS 578T breast) was 13.6 µM. For the same compound, the TGI (HS 578T breast) was > 25 µM, the GI50 (SW-620 colon) was 5.22 µM and the TGI (SW-620 colon) was > 25 µM. For the same compound, the GI50 (HOP-62 NSCLC) was 5.24 µM, the TGI (HOP-62 NSCLC) was 21.6 µM and the GI50 (A498 renal) was 19.9 µM. For the same compound, the TGI (A498 renal) was > 25 µM, the GI50 (HCT-116 colon) was 3.28 µM and the TGI (HCT-116 colon) was 9.59 µM. The GI50 (SN12C renal) was 5.91 µM, the TGI (SN12C renal) was > 25 µM and the GI50 (UO-31 renal) was 3.01 µM. The TGI (UO-31 renal) was 14.2 µM, the GI50 (OVCAR-4 ovarian) was 10.4 µM and the TGI (OVCAR-4 ovarian) was > 25 µM. The GI50 (KM12 colon) was 3.09 µM, the TGI (KM12 colon) was 12.7 µM and the GI50 (MDA-MB-435) was 5.68 µM. The TGI (MDA-MB-435) was > 25 µM.
